Test results from ChEMBL document CHEMBL3044868, “Effect of pre-sowing and pre-emergence glyphosate applications on weedsin stale seedbed cotton” (2009).

Key:
Type in all cases: functional
[1] = system: Gossypium hirsutum; experiment: Increase of boll weight in Gossypium hirsutum (cotton) at 2.88 kg a.i./ha as pre-emergence treatment 3 to 4 days after sowing without seedbed preparation measured during harvest time
[2] = system: Gossypium hirsutum; experiment: Increase of plant height in Gossypium hirsutum (cotton) at 2.88 kg a.i./ha sprayed at 2 to 3 days before sowing without seedbed preparation measured during harvest time
[3] = system: Gossypium hirsutum; experiment: Increase of seed cotton yield in Gossypium hirsutum (cotton) at 2.88 kg a.i./ha as pre-emergence treatment 3 to 4 days after sowing without seedbed preparation measured during harvest time
[4] = system: Gossypium hirsutum; experiment: Increase of seed cotton yield in Gossypium hirsutum (cotton) at 2.88 kg a.i./ha sprayed at 2 to 3 days before sowing without seedbed preparation measured during harvest time
[5] = system: Gossypium hirsutum; experiment: Increase of cotton cover in Gossypium hirsutum (cotton) at 2.88 kg a.i./ha as pre-emergence treatment 3 to 4 days after sowing without seedbed preparation measured 2 weeks after emergence
[6] = system: Gossypium hirsutum; experiment: Increase of cotton cover in Gossypium hirsutum (cotton) at 2.88 kg a.i./ha sprayed at 2 to 3 days before sowing without seedbed preparation measured 2 weeks after emergence
[7] = system: Gossypium hirsutum; experiment: Increase of plant height in Gossypium hirsutum (cotton) at 2.88 kg a.i./ha as pre-emergence treatment 3 to 4 days after sowing without seedbed preparation measured during harvest time
[8] = system: Gossypium hirsutum; experiment: Increase of boll weight in Gossypium hirsutum (cotton) at 2.88 kg a.i./ha sprayed at 2 to 3 days before sowing without seedbed preparation measured during harvest time
[9] = system: Gossypium hirsutum; experiment: Increase of cotton cover in Gossypium hirsutum (cotton) at 2.88 kg a.i./ha as pre-emergence treatment 3 to 4 days after sowing with seedbed preparation measured 2 weeks after emergence
[10] = system: Gossypium hirsutum; experiment: Increase of boll weight in Gossypium hirsutum (cotton) at 2.88 kg a.i./ha as pre-emergence treatment 3 to 4 days after sowing with seedbed preparation measured during harvest time
[11] = system: Gossypium hirsutum; experiment: Increase of plant height in Gossypium hirsutum (cotton) at 2.88 kg a.i./ha as pre-emergence treatment 3 to 4 days after sowing with seedbed preparation measured during harvest time
[12] = system: Gossypium hirsutum; experiment: Increase of seed cotton yield in Gossypium hirsutum (cotton) at 2.88 kg a.i./ha as pre-emergence treatment 3 to 4 days after sowing with seedbed preparation measured during harvest time

SMILES: O=C(O)CNCP(=O)(O)O [GLYPHOSATE]
- Activity [1]: 5.9 g
- Activity [2]: 90.7 cm
- Crop_yield [3]: 5.5 tons/ha
- Crop_yield [4]: 6 tons/ha
- Activity [5]: 16.3%
- Activity [6]: 11.7%
- Activity [7]: 91.1 cm
- Activity [8]: 5.2 g
- Activity [9]: 7%
- Activity [10]: 4.3 g
- Activity [11]: 91.5 cm
- Crop_yield [12]: 4.8 tons/ha
